2 compounds from ChEMBL document CHEMBL1149374, “Synthesis and biological evaluation of gem-diamine 1-N-iminosugars related to L-iduronic acid as inhibitors of heparan sulfate 2-O-sulfotransferase” (Bioorg Med Chem Lett, 2006) can be followed below.

The experiment concerns the target T1, Heparan sulfate 2-O-sulfotransferase 1 (Cricetulus longicaudatus) (UniProt O08889).
T1 sequence (whole entry): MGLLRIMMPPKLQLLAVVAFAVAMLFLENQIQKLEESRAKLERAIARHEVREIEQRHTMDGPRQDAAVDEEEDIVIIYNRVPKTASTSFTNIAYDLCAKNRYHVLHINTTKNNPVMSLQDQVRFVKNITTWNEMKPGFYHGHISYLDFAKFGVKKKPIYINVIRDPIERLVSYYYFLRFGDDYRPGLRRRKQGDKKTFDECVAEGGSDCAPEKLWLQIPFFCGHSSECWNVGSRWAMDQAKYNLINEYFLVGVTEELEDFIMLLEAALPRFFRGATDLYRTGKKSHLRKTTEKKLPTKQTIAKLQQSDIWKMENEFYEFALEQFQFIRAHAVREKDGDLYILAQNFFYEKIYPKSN
Put plainly: Inhibition of sulfate transfer by HS 2-O-ST from CHO cells. The following applies: concentration not given here. Type of experiment: functional, cell-based.

Each structure is given as a SMILES string.

In the case of `CCC(CC)C(=O)N1C[C@@H](C(=O)O)[C@H](N=C(N)N)[C@H](O)[C@H]1NC(C)=O`, the inhibition (as a rule, the share of the control response that was lost under treatment) is 84%. On to `CC(=O)N[C@H]1NC[C@@H](C(=O)O)[C@H](N=C(N)N)[C@@H]1O`, for which the inhibition amounted to 76%.
